Experimental data from ChEMBL document CHEMBL1137431, “Discovery of small molecule integrin alphavbeta3 antagonists as novel anticancer agents” (J Med Chem, 2006).

What was measured:
HEY [1] = test: Cytotoxicity against human HEY cell line at 20 uM by MTT assay; format: functional
MDA-MB-435 [2] = test: Cytotoxicity against human MDA-MB-435 cell line at 20 uM by MTT assay; format: functional
MCF7 [3] = test: Cytotoxicity against human MCF7 cell line at 20 uM by MTT assay; format: functional
Integrin alpha-V/beta-3 = Integrin alpha-V/beta-3 (Homo sapiens, UniProt P05106+P06756); test: Inhibition of [125I]echistatin binding to integrin alphaVbeta3 receptor; format: protein-complex assay
Sequence of Integrin alpha-V/beta-3 (P05106 27-788 limits assumed): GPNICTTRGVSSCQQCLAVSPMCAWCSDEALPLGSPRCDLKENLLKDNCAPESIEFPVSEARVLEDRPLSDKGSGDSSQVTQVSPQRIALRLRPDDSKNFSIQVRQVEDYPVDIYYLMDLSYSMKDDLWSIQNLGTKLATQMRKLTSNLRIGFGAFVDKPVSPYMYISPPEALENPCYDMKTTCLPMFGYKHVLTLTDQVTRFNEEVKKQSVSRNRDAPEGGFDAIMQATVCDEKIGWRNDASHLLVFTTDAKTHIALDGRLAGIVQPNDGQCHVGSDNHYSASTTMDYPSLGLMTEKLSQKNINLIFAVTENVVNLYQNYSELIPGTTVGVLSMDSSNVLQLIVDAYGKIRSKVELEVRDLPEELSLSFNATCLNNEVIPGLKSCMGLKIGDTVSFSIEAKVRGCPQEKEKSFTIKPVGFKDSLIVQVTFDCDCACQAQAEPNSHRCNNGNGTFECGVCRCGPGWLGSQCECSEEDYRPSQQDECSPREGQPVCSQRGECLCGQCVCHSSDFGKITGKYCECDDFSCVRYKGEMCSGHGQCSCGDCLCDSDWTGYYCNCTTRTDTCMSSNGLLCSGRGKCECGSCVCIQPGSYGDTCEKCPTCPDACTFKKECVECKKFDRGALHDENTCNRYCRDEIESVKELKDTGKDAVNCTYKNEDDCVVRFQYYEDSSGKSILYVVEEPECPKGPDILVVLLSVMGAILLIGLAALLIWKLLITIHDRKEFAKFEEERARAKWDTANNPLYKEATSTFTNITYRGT
Sequence of Integrin alpha-V/beta-3 (P06756 31-889 limits assumed): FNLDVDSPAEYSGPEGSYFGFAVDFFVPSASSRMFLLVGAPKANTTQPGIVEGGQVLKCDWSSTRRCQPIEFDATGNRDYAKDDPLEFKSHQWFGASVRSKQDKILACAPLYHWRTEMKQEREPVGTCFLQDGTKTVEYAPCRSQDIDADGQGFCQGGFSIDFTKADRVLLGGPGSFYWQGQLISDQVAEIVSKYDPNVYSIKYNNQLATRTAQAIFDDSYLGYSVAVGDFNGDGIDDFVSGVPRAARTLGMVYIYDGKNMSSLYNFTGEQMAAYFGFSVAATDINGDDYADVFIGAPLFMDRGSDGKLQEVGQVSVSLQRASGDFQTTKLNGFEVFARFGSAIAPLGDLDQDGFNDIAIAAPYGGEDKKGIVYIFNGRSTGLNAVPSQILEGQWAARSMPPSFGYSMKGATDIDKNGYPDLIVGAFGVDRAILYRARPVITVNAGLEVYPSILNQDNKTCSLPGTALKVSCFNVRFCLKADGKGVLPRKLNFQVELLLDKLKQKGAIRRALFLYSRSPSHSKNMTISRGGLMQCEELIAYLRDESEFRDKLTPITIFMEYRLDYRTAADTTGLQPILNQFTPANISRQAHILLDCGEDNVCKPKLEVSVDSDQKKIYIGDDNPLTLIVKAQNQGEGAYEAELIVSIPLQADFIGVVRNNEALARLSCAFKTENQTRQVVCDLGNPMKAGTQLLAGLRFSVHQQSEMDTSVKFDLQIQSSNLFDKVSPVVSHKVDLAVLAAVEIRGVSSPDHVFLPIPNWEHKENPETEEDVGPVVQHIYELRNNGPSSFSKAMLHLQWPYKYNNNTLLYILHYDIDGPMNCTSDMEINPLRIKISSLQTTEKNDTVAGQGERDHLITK
Sequence of Integrin alpha-V/beta-3 (P06756 891-1048 limits assumed): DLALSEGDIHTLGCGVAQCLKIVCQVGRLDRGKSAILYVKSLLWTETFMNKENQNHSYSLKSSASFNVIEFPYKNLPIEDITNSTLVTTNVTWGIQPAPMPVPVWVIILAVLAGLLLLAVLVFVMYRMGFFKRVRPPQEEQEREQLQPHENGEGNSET

MDA-MB-435 [4] = test: Cytotoxicity against human MDA-MB-435 cell line by MTT assay; format: functional, cell-based
MCF7 [5] = test: Cytotoxicity against human MCF7 cell line by MTT assay; format: functional, cell-based
HEY [6] = test: Cytotoxicity against human HEY cell line by MTT assay; format: functional, cell-based
NIH3T3 = test: Cytotoxicity against mouse NIH3T3 cell line by MTT assay; format: functional, cell-based
NCI-H1975 = test: Cytotoxicity against human NCI-H1975 cell line by MTT assay; format: functional, cell-based

Row | Structure (SMILES) | inhibition at 20 µM (HEY [1]) [%] | IC50 (MDA-MB-435 [4]) [µM] | IC50 (MCF7 [5]) [µM] | IC50 (HEY [6]) [µM] | further results
1 | CC(=O)Nc1nc(O)c2nc(CCN(C)c3ccc(C(=O)O)cc3)cnc2n1 | 0 | – | – | – | –
2 | Cc1nnc(N/N=C/c2ccc(OCC(=O)O)cc2)nc1O | 0 | – | – | – | –
3 | Nc1nc(O)c2cc(COc3ccc(C(=O)NC(CCC(=O)O)C(=O)O)cc3)ccc2n1 (configuration not stated) | 6 | – | – | – | –
4 | Nc1nc(=O)c2cc(CSc3ccc(C(=O)NC(CCC(=O)O)C(=O)O)cc3)ccc2[nH]1 (configuration not stated) | 0 | – | – | – | –
5 | Nc1ccc(C(=O)Nc2nc3ccc(C(=O)O)cc3s2)cc1 | 0 | – | – | – | –
6 | COc1cc(O)c(Cl)cc1/C=C1\S/C(=N/c2cccc(C(=O)O)c2)N(C)C1=O | 0 | – | – | – | inhibition at 20 µM (MDA-MB-435 [2]): 3%; inhibition at 20 µM (MCF7 [3]): 9%
7 | Cc1ccnc(NS(=O)(=O)c2ccc(NC(=O)c3ccc(C(=O)O)cc3C(=O)O)cc2)n1 | 0 | – | – | – | –
8 | CN(C)c1ccc(/C=C2\SC(=Nc3ccc(O)cc3)NC2=O)cc1 | – | 2.8 | > 20 | > 20 | IC50 (Integrin alpha-V/beta-3): > 1 µM
9 | O=C(O)c1ccc(-c2ccc(/C=N/Nc3nc(Nc4ccccc4)nc(Nc4ccccc4)n3)o2)cc1 | – | 18 | > 20 | 21 | –
10 | Nc1nc(O)c2nc3c(nc2n1)C(=O)N(c1ccc(C(=O)NC(CCC(=O)O)C(=O)O)cc1)C3 (configuration not stated) | 0 | – | – | – | –
11 | CN(Cc1cnc2nc(N)nc(N)c2n1)c1ccc(C(=O)NC(CCCCN)C(=O)O)cc1 (configuration not stated) | 0 | – | – | – | –
12 | CS(=O)(=O)Nc1ccc(C2=NN(C(=O)CCCC(=O)O)C(c3ccco3)C2)cc1 (configuration not stated) | – | > 20 | > 20 | > 20 | IC50 (NIH3T3): > 20 µM; IC50 (NCI-H1975): > 20 µM
13 | Cc1ccc(NC(=O)CN2C(=O)N/C(=C\c3cccn3-c3cccc(C(=O)O)c3)C2=O)cc1 | 5 | > 20 | > 20 | > 20 | IC50 (NIH3T3): > 20 µM; IC50 (NCI-H1975): > 20 µM
14 | COc1cc(OC)c(/C=C2\S/C(=N/c3ccc(C(=O)O)cc3)N(C)C2=O)cc1Br | 4 | – | – | – | –
15 | CCOc1cc(/C=C2/S/C(=N\c3ccc(C(=O)O)cc3)N(C)C2=O)ccc1O | 51 | 0.34 | > 20 | 13 | IC50 (Integrin alpha-V/beta-3): 0.24 µM; inhibition at 20 µM (MDA-MB-435 [2]): 94%; inhibition at 20 µM (MCF7 [3]): 37%; IC50 (NIH3T3): > 20 µM; IC50 (NCI-H1975): > 20 µM
16 | O=C(O)c1cccc(-c2ccc(/C=N/Nc3nc4nonc4nc3Nc3ccc(F)cc3)o2)c1 | 90 | 8 | 19 | 7 | IC50 (Integrin alpha-V/beta-3): > 1 µM; IC50 (NIH3T3): 13 µM; IC50 (NCI-H1975): > 20 µM
17 | COc1cc(Cl)c(/C=C2\S/C(=N/c3cccc(C(=O)O)c3)N(C)C2=O)cc1OC | 0 | > 20 | > 20 | > 20 | IC50 (NIH3T3): > 20 µM; IC50 (NCI-H1975): > 20 µM
18 | CC1=C(C#N)c2nc(N)c(C#N)c(C)c2/C1=C/c1ccc(-c2ccc(Cl)c(C(=O)O)c2)o1 | 14 | – | – | – | –
19 | Nc1nc(O)c2nc(CCCNc3ccc(C(=O)NC(CCC(=O)O)C(=O)O)cc3)cnc2n1 (configuration not stated) | 0 | > 20 | > 20 | > 20 | IC50 (NIH3T3): > 20 µM; IC50 (NCI-H1975): > 20 µM
20 | CCOc1cc(/C=N/Nc2nc(Nc3ccccc3)nc(N3CCCCC3)n2)ccc1OCC(=O)O | 0 | – | – | – | –
21 | CC1=NN(c2ccc(C(=O)O)cc2)C(=O)/C1=C/c1ccc(-c2ccc(S(N)(=O)=O)cc2)o1 | 6 | > 20 | 19 | > 20 | –
22 | COc1cc(/C=C2/NC(=O)N(CC(=O)Nc3ccc(C)cc3)C2=O)ccc1OCc1cccc(C(=O)O)c1 | 0 | – | – | – | inhibition at 20 µM (MDA-MB-435 [2]): 26%; inhibition at 20 µM (MCF7 [3]): 43%
23 | CC1=NN(c2ccc(S(N)(=O)=O)cc2)C(=O)/C1=C\c1ccc(-c2ccccc2C(=O)O)o1 | 5 | – | – | – | inhibition at 20 µM (MDA-MB-435 [2]): 24%; inhibition at 20 µM (MCF7 [3]): 20%
24 | CCn1cc(C(=O)O)c(=O)c2cc(F)c(N3CCN(S(=O)(=O)c4ccc(NC(C)=O)cc4)CC3)cc21 | 0 | – | – | – | –
25 | O=C(CSc1nnn(-c2ccc(O)cc2)n1)NCc1cccc(C(=O)O)c1 | 0 | – | – | – | inhibition at 20 µM (MDA-MB-435 [2]): 9%; inhibition at 20 µM (MCF7 [3]): 34%
26 | COc1cc(/C=N/Nc2nc(Nc3ccc(F)cc3)nc(N3CCCCC3)n2)ccc1OCC(=O)O | 0 | – | – | – | –
27 | CCOc1ccc(/N=C2/S/C(=C\c3ccc(N(C)C)cc3)C(=O)N2CC)cc1 | – | > 20 | > 20 | > 20 | IC50 (NIH3T3): > 20 µM; IC50 (NCI-H1975): > 20 µM
28 | O=C(O)COc1ccc(/C=N/NC(=O)c2ccc(O)cc2)cc1OCC(=O)O | 9 | – | – | – | –
29 | O=C(CCCCn1cnc2c(S)ncnc21)Nc1ccc(C(=O)O)c(O)c1 | 0 | – | – | – | –
